Structures can show the parent of a compound that is named as a salt.
Tests used:
[1] = molecular target: T1, TBK1 (Homo sapiens, UniProt Q9UHD2); experiment: TBK biochemical assay; settings: 10 point 1:4 dose response, 30 uM top concentration, 90 min at 25° C., LabChip EZ Reader II; read-out: TBK1_IC50
T1 sequence (Q9UHD2 1-729): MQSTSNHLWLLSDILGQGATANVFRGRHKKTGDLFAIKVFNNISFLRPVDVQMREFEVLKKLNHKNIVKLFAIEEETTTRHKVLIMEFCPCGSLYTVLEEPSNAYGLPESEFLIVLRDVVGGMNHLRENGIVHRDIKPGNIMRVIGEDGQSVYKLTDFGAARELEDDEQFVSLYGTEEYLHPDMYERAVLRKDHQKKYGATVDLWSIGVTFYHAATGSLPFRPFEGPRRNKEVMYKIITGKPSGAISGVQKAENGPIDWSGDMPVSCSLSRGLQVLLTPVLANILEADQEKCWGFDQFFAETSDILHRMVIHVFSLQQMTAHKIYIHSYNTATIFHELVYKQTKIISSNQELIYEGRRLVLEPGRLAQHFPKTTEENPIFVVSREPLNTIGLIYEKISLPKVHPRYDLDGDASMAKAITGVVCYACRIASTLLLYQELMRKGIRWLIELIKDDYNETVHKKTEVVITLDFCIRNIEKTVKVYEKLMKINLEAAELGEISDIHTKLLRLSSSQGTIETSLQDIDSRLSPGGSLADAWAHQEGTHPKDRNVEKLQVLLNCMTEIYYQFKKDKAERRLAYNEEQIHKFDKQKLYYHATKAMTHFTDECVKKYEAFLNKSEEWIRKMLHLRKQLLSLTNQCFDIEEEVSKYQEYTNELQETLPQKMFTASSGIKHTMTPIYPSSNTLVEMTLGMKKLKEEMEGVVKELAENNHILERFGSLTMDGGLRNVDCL
Protocol: (§1) Test compounds were transferred into Labcyte polypropylene 384 well plates (P055-25) and diluted to 3 mM using DMSO. […] 100 uM of a reference compound (1 uM final high concentration). Backfilling was performed if necessary so that all wells contain 1% DMSO final:
(§2) add 75 nl DMSO/well into columns 1, 2 and 24 using Labcyte Echo. add 75 nl 1.0 mM staurosporine/well into column 23 using Labcyte Echo ([…]) add 4.5 ul enzyme/well using multidrop dispenser add 3 ul substrate/well using multidrop dispenser incubate at 25° C. in Heidolph incubator for 90 min. add 7.5 ul 2× stop buffer using multidrop dispenser read on labchip ez reader II using TBK1.job
(§3) Raw data files were opened in the Caliper LabChip Reviewer program (Version 3.0.265.0 SP2) and peak assignments were adjusted to reflect “substrate first” with the software's post-run analysis options. A spline-fit baseline was applied using the software's analysis algorithm.

[2] = molecular target: T2, IKKε (Homo sapiens, UniProt Q14164); experiment: IKKε biochemical assay; settings: 10 point 1:4 dose response, 30 uM top concentration, 90 min at 25° C., LabChip EZ Reader II; read-out: IKKε_IC50
T2 sequence (Q14164 1-716): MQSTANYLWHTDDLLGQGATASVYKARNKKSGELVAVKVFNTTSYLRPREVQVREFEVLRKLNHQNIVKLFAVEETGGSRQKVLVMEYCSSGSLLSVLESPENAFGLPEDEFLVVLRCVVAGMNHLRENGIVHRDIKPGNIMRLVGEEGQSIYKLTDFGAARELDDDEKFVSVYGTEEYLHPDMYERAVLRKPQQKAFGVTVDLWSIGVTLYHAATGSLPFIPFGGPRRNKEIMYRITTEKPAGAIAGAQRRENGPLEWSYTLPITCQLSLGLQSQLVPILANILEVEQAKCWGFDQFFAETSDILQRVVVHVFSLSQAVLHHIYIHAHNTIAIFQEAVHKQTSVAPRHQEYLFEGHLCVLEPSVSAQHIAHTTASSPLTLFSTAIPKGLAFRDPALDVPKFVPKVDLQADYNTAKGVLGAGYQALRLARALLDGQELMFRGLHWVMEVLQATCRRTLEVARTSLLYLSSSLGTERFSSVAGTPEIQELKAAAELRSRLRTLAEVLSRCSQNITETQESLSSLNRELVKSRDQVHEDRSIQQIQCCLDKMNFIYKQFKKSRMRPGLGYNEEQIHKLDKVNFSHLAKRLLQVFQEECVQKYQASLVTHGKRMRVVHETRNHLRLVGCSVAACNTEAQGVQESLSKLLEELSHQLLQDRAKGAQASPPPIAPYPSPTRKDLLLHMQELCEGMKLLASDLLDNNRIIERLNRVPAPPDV
Protocol: as §1
as §2, with “C.” for “C. in Heidolph incubator”, “buffer” for “buffer using multidrop dispenser”, “IKKε.” for “TBK1.job”
as §3

Row | Structure (SMILES) | IC50 [1] [nM] | IC50 [2] [nM]
1 | COc1cc(Nc2nccc(-c3ccc(OC4CCOCC4)c(C#N)n3)n2)cnc1C(=O)N(C)C [Example 25, 5-([4-[6-cyano-5-(oxan-4-yloxy)pyridin-2-yl]pyrimidin-2-yl]amino)-3-methoxy-N,N-dimethylpyridine-2-carboxamide] | < 100 | < 100
2 | COc1nc(Nc2ncc(F)c(-c3ccc(O[C@H]4CCN(C(=O)[C@H](C)O)CC4(F)F)c(C#N)c3)n2)ccc1N1CCN(C2COC2)CC1 [Example 288, 2-[[(4S)-33-difluoro-1-[(2S)-2-hydroxypropanoyl]piperidin-4-yl]oxy]-5-[5-fluoro-2-([6-methoxy-5-[4-(oxetan-3-yl)piperazin-1-yl]pyridin-2-yl]amino)pyrimidin-4-yl]benzonitrile] | < 100 | < 100
3 | N#Cc1cc(-c2ccnc(Nc3ccc(N4CCN(C5COC5)CC4)cc3)n2)ccc1OC1CCOC1 (stereo not drawn) [Example 161, 5-[2-([4-[4-(oxetan-3-yl)piperazin-1-yl]phenyl]amino)pyrimidin-4-yl]-2-(oxolan-3-yloxy)benzonitrile] | < 100 | < 100
4 | COc1nc(Nc2nccc(-c3ccc(OC4CCN(C(=O)CO)CC4(F)F)c(C#N)c3)n2)ccc1C1CCN(C2COC2)CC1 (stereo not drawn) [Example 154, 2-[3,3-Difluoro-1-(2-hydroxy-acetyl)-piperidin-4-yloxy]-5-[2-(2-methoxy-1′-oxetan-3-yl-1′,2′,3′,4′,5′,6′-hexahydro-[3,4′]bipyridinyl-6-ylamino)-pyrimidin-4-yl]-benzonitrile] | < 100 | < 100
5 | COc1nc(Nc2ncc(C)c(-c3ccc(O[C@@H]4CCN(C(=O)[C@H](C)O)CC4(F)F)c(C#N)c3)n2)ccc1N1CCN(C2COC2)CC1 [Example 285, 2-[[(4R)-3,3-difluoro-1-[(2S)-2-hydroxypropanoyl]piperidin-4-yl]oxy]-5-[2-([6-methoxy-5-[4-(oxetan-3-yl)piperazin-1-yl]pyridin-2-yl]amino)-5-methylpyrimidin-4-yl]benzonitrile] | 100 to 1000 | 100 to 1000
6 | COc1nc(Nc2nccc(-c3ccc(OC4CCOCC4)c(C#N)n3)n2)ccc1C(=O)N(C)C [Example 26, 6-([4-[6-cyano-5-(oxan-4-yloxy)pyridin-2-yl]pyrimidin-2-yl]amino)-2-methoxy-N,N-dimethylpyridine-3-carboxamide] | < 100 | < 100
7 | COc1nc(Nc2nccc(-c3ccc(OC4CCN(C(=O)c5cnco5)CC4)c(C#N)c3)n2)ccc1N1CCN(C)CC1 [Example 92, 5-(2-[[6-methoxy-5-(4-methylpiperazin-1-yl)pyridin-2-yl]amino]pyrimidin-4-yl)-2-([1-[(1,3-oxazol-5-yl)carbonyl]piperidin-4-yl]oxy)benzonitrile] | < 100 | < 100
8 | CN1CCN(c2ccc(Nc3nccc(-c4ccc(OC5CCN(C)CC5(F)F)c(C#N)c4)n3)nc2)CC1 (stereo not drawn) [Example 85, 2-[(3,3-difluoro-1-methylpiperidin-4-yl)oxy]-5-(2-[[5-(4-methylpiperazin-1-yl)pyridin-2-yl]amino]pyrimidin-4-yl)benzonitrile] | 100 to 1000 | 100 to 1000
9 | CN1CCN(c2ccc(Nc3nccc(-c4ccc(O[C@H]5CCN(C)C[C@H]5F)c(C#N)c4)n3)nc2)CC1 [Example 84, 2-[[(3R,4S)-3-fluoro-1-methylpiperidin-4-yl]oxy]-5-(2-[[5-(4-methylpiperazin-1-yl)pyridin-2-yl]amino]pyrimidin-4-yl)benzonitrile] | 100 to 1000 | < 100
10 | COc1nc(Nc2nccc(-c3ccc(OC4CCOCC4)c(C#N)c3)n2)ccc1C(=O)N1CC2CCC1CN2C (stereo not drawn) [Example 18, 5-(2-[[6-methoxy-5-([5-methyl-2,5-diazabicyclo[2.2.2]octan-2-yl]carbonyl)pyridin-2-yl]amino]pyrimidin-4-yl)-2-(oxan-4-yloxy)benzonitrile] | < 100 | < 100
11 | COc1nc(Nc2nccc(-c3ccc(OC4CCNCC4(F)F)c(C#N)c3)n2)ccc1N1CCN(C)C[C@@H]1C (stereo partly drawn) [Example 109, 2-(3,3-Difluoro-piperidin-4-yloxy)-5-{2-[5-((S)-2,4-dimethyl-piperazin-1-yl)-6-methoxy-pyridin-2-ylamino]-pyrimidin-4-yl}-benzonitrile] | < 100 | < 100

The next lines start with the values.

Row | IC50 [1] [nM] | IC50 [2] [nM] | Structure (SMILES)
12 | < 100 | < 100 | COc1nc(Nc2nccc(-c3ccc(O[C@@H]4CCN(C(=O)[C@H](C)O)C[C@H]4F)c(C#N)c3)n2)ccc1C1CCN(C2COC2)CC1 [Example 192, 2-[(3R,4R)-3-Fluoro-1-((S)-2-hydroxy-propionyl)-piperidin-4-yloxy]-5-[2-(2-methoxy-1′-oxetan-3-yl-1′,2′,3′,4′,5′,6′-hexahydro-[3,4′]bipyridinyl-6-ylamino)-pyrimidin-4-yl]-benzonitrile]
13 | < 100 | < 100 | N#Cc1cc(-c2ccnc(Nc3ccc(C4CCN(C5COC5)C4)cc3)n2)ccc1OC1CCNCC1(F)F (stereo not drawn) [Example 155, 2-(3,3-Difluoro-piperidin-4-yloxy)-5-{2-[4-(1-oxetan-3-yl-pyrrolidin-3-yl)-phenylamino]-pyrimidin-4-yl}-benzonitrile hydrochloride]
14 | < 100 | < 100 | C[C@H](O)C(=O)N1CCC(Oc2ccc(-c3ccnc(Nc4ccc(C5CCN(C6COC6)CC5)cc4)n3)cc2C#N)C(F)(F)C1 (stereo partly drawn) [Example 212, 2-([3,3-difluoro-1-[(2S)-2-hydroxypropanoyl]piperidin-4-yl]oxy)-5-[2-([4-[1-(oxetan-3-yl)piperidin-4-yl]phenyl]amino)pyrimidin-4-yl]benzonitrile]
15 | < 100 | < 100 | COc1nc(Nc2nccc(-c3ccc(OC4CCOCC4)c(C#N)c3)n2)ccc1C1CCN(C)C1 (stereo not drawn) [Example 42, 5-(2-[[6-methoxy-5-(1-methylpyrrolidin-3-yl)pyridin-2-yl]amino]pyrimidin-4-yl)-2-(oxan-4-yloxy)benzonitrile]
16 | < 100 | < 100 | C[C@H](O)C(=O)N1CCC(Oc2ccc(-c3ccnc(Nc4cccnc4)n3)cc2C#N)C(F)(F)C1 (stereo partly drawn) [Example 205]
17 | 100 to 1000 | 100 to 1000 | C[C@H](O)C(=O)N1CC(Oc2ccc(-c3ccnc(Nc4ccc(N5CCN(C6COC6)CC5)cc4)n3)cc2C#N)C1 [Example 172, 2-([1-[(2S)-2-hydroxypropanoyl]azetidin-3-yl]oxy)-5-[2-([4-[4-(oxetan-3-yl)piperazin-1-yl]phenyl]amino)pyrimidin-4-yl]benzonitrile]
18 | < 100 | < 100 | Cc1nc(C(=O)N2CCC(Oc3ccc(-c4ccnc(Nc5ccc(N6CCN(C7COC7)CC6)cc5)n4)cc3C#N)CC2)c[nH]1 [Example 274, 2-[[1-(2-methyl-1H-imidazole-4-carbonyl)piperidin-4-yl]oxy]-5-[2-([4-[4-(oxetan-3-yl)piperazin-1-yl]phenyl]amino)pyrimidin-4-yl]benzonitrile]
